Assay results as given in PubChem BioAssay AID179 (DTP/NCI, 2004).
“And” between values parts separate entries of the source, which are not always exact repeats. Identical values can stand only once. The source made the active and inactive calls.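 Rule for the calls: active = compounds giving half or more protection of infected cells from virus-caused growth loss, again on retest; inactive = the rest.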 Where a SMILES comes first, the peptide text is derived from it.

Tested on: CEM cells HIV-1 protection, formazan growth assay
Assay: NCI AIDS Antiviral Assay
Conditions: for IC50: measured here: growth of uninfected CEM cells
Procedure: The ability of compounds to protect human CEM cells from HIV-1 infection is measured as a screen for new compounds capable of inhibiting the HIV virus. Five concentrations of drug were tested on uninfected and infected cells and cell growth was measured using a soluble formazan assay. […] Compounds that provided at least 50% protection were retested. Compounds that provided at least 50% protection on retest were listed as moderately active. Compounds that reproducibly provided 100% protection were listed as confirmed active. […] Note that the inability to provide protection could be due to toxicity.

Row | SMILES | outcome | EC50 [µM] | IC50
1 | CC1c2c(n(C)c3ccccc23)C2CCC3(CO3)C1N2Cc1ccccc1 (configuration not stated) | inactive |  | 
2 | O=C1NC(=O)/C(=C\c2ccncc2)N1 |  | > 200 | > 200 µM
3 | Cc1ccc(S(=O)(=O)SS(=O)(=O)c2ccc(C)cc2)cc1 |  | 13.8 | 52.5 µM
4 | O=C(CN1CCCCC1)CC(O)(C(F)(F)F)C(F)(F)F |  | > 200 | 66.1 µM
5 | COc1c(O)cc2oc3cc(O)c(CC=C(C)C)c(O)c3c(=O)c2c1CC=C(C)C |  | > 229 | 16.6 µM and 10.7 µM
6 | O=[P+](O)c1ccsc1 | inactive |  | 
7 | C[N+](C)(C)CC1CCC(C[N+](C)(C)C)C1=NO (configuration not stated) |  | > 501 | > 501 µM
8 | CC(=O)OCC1OC(n2c(-c3ccccc3)c(N=Nc3ccc(C)cc3)c(C)c(C#N)c2=S)C(OC(C)=O)C(OC(C)=O)C1OC(C)=O (configuration not stated) |  | 195 | > 200 µM
9 | CC(=O)OCC1OC(SC2=NC(=O)CS2)C(OC(C)=O)C(OC(C)=O)C1OC(C)=O (configuration not stated) | inactive | > 200 | 74.1 µM
10 | Cn1nc(N)nc1N=S(C)(C)=N |  | > 1320 | > 1320 µM
11 | Cc1cc(C)c(C(=O)c2c(C)cccc2C(=O)O)c(C)c1 |  | > 200 | > 200 µM
12 | Cc1ccc2c(c1)[nH]c(=S)n2/C=C(/c1ccc(Cl)cc1)S(=O)(=O)Cc1ccc(Cl)cc1 |  | > 200 | > 200 µM
13 | CC[C@]1(O)CC[C@H]2[C@@H]3CCC4=CC(=O)CC[C@@H]4[C@H]3CC[C@@]21CC |  | > 200 | 49 µM
14 | N/N=C(\N)SCc1ccc(N=C=S)cc1 | inactive |  | 
15 | CC(C)=C1CC(C)(C)N=C1CCN1CCOCC1 |  | > 200 | 2.95 µM
16 | CC(C)CC(N)C(=O)NC(CC(=O)O)C(=O)NC(CCCCN)C(=O)NC(C)C(=O)NC(CO)C(=O)NC(Cc1ccc(O)cc1)C(=O)NC(CO)C(=O)NC(C(=O)NC(CC(N)=O)C(=O)NC(Cc1cnc[nH]1)C(=O)O)C(C)O (configuration not stated) (H-LDKASYSTNH-OH; configuration not given here) |  | > 21.9 | > 21.9 µM
17 | C[C@]12CC[C@H](O)CC1=CC[C@@H]1[C@@H]2CC[C@]2(C)/C(=N/OCCN3CCCC3)CC[C@@H]12 |  | > 200 | 9.33 µM
18 | O=C(Nc1ccccc1)OCC1OCOC(COC(=O)Nc2ccccc2)C1OC(=O)Nc1ccccc1 (configuration not stated) |  | > 200 | 4.47 µM

Row | SMILES | outcome | EC50 [µM] | IC50
19 | COc1cc(O)c(C(C)=O)c(O)c1 |  | > 200 | 19.1 µM
20 | C=CCNC(=O)ON1C(=O)CCC1=O |  | > 1260 | > 1260 µM
21 | O=C(Nc1ccc(Cl)cc1Cl)c1cc2nc3ccccc3c(=O)n2c2ccccc12 |  | > 100 | > 100 µM
22 | CC(C)(C)n1[nH]c(=O)n(C(C)(C)C)c1=O |  | > 200 | > 200 µM
23 | CN(C)CCNC(=O)c1ccc(Cl)c2c(Nc3ccc(S(N)(=O)=O)cc3)c3ccccc3nc12 | inactive |  | 
24 | CCOC(=N)N1CCCCC1 |  | > 200 | > 200 µM
25 | Cc1nnc2sc(C(=O)O)nn12 |  | > 200 | > 200 µM
26 | CCc1c(-c2ccc(OC)cc2)oc(OC)c(C)c1=O |  | > 200 | 40.7 µM
27 | CCOc1ccc(Nc2nc(N)nc(N)c2N=O)cc1 |  | > 151 | 15.8 µM
28 | Clc1ccc(C2NCCNCc3ccccc32)cc1 (configuration not stated) | inactive |  | 
29 | CC1NC(=O)C2=C1C(=O)NC(=O)C2 (configuration not stated) |  | 40.7 | 195 µM
30 | Cc1ccc(C)n1N1CCOCC1 |  | > 200 | 115 µM
31 | COc1ccc2c(c1OCC(=O)O)C(=O)C(CCC(=O)O)CC2 (configuration not stated) | inactive |  | 
32 | Cc1ccc(N=Nc2ccc(O)c(=O)cc2)cc1 |  | > 11.2 | 6.92 µM
33 | COc1cccc(-c2cc(C(=O)Nc3ccc(Cl)cc3)nc(N)n2)c1 |  | > 72.4 | 52.5 µM
34 | Cc1cccc(CP(Cc2cccc(C)c2)CC2(Cp3c4ccccc4c4ccccc43)COC2)c1 |  | > 2 | 0.257 µM
35 | OC1c2ccccc2C(O)c2c1ccc1c2CN(Cc2ccccc2)CC1 (configuration not stated) |  | > 72.4 | 12.6 µM
36 | Cc1cccc(C)c1NC(=O)/C(=N/NC(N)=S)C(C)C(=O)c1ccc(Cl)cc1 (configuration not stated) |  | > 44.7 | > 44.7 µM
